Patent US20100248365A1, “GANGLIOSIDE BIOSYNTHESIS MODULATORS” (ZACHARON PHARMACEUTICALS, INC., priority 2009, published 2010)

Target: T1, ST3Gal 1 (rat recombinant a 2,3-Sialytransferase) (Rattus norvegicus, UniProt Q6H8N0)
T1 sequence (Q6H8N0 1-340): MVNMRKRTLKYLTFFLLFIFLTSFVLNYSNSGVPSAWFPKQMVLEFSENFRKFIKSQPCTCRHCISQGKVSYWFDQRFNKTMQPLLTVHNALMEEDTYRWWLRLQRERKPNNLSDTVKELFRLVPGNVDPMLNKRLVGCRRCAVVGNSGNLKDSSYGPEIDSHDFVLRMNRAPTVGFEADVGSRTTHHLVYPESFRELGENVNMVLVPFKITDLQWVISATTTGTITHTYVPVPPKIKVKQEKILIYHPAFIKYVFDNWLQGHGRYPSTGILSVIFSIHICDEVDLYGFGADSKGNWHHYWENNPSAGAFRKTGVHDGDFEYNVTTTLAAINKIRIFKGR
Experiment: ST3Gal 1 assay with 2AA-labeled GSL standards, HPLC readout
Type: biochemical
Conditions: b350 ties FIG. 5/6 (compound 1) to the ST3Gal 1 assay
Method: The enzyme ST3Gal 1 (rat recombinant a 2,3-Sialytransferase) assay was carried out with 2AA-labeled GSL standards as substrate. The complete incubation mixture contained the following components in a final volume of 20 ul: 50 mM cacodylate buffer, pH6.2, 10 mM MgCl2, 0.2% TX100, 2 mM CMP-sialic acid (CMP-SA), 100 ng 2AA-GM1/GD1b, 10 μU of ST3Gal1 enzyme. The reaction was carried out @37° C. for 30 min. Control reactions were done without CMP-SA. The reaction was analyzed by HPLC as described above. The % of product conversion was assessed by comparison to control samples. The enzyme titration curve was determined from 10, 3, 1, 0.3 and 0.1 μU of enzyme. The time course was determined using 10 μU of the enzyme, @ 0, 5, 10, 15, 30, 45, 60, 90, and 120 min. […] FIG. 5 illustrates the activity of late stage selective ganglioside inhibitors.

SMILES: Cc1nn(-c2ccccc2)c(C)c1C=NN1CCN(Cc2ccccc2Cl)CC1 [compound 1, 4-(2-chlorobenzyl)-N-((3,5-dimethyl-1-phenyl-1H-pyrazol-4-yl)methylene)piperazin-1-amine]
- inhibition of ST3Gal 1 enzyme activity (FIG. 5): inhibition
